Data taken from PMC12514245, “Impaired migration and lung invasion of human melanoma by a novel small molecule targeting the transmembrane domain of death receptor p75^NTR” (EMBO Molecular Medicine, 2025).
Values joined by “and” are separate entries in the source; they are usually repeats but may differ in a detail not shown here. Equal entries are not always repeated.

Key:
p75^NTR TMD V254A = molecular target: T1, p75^NTR TMD V254A (Homo sapiens, UniProt P08138, V254A); test: AraTM assay, V254A mutant p75NTR TMD; format: cell-based; conditions: for GFP/OD630, p75NTR V254A, Mean: N=3
T1 construct: Comparison of wild-type (WT) p75^NTR TMD and I252A, P253G and V254A mutants in the AraTM assay; expressed in transfected cells; host or cells: E. coli AS19 (LPS-negative)
T1 sequence (P08138 250-275 V254A): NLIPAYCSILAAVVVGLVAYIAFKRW

A875 melanoma cells (NT) = test: Cleaved PARP western blot (apoptosis), A875 NT; format: cell-based, human
Description: One of the main biological readouts of p75^NTR activity in response to neurotrophins is the induction of caspase-mediated apoptotic cell death (Underwood and Coulson, [2008]; Friedman, [2010]; Ibáñez and Simi, [2012]).
COS7, A875 and WM115 cell lines were cultured under standard conditions in DMEM supplemented with 10% fetal calf serum, 100 units/ml penicillin, […] streptomycin, and 2.5 mM glutamine. All cells were authenticated and tested for mycoplasma contamination. A875-NT (control) and A875 shp75 (knockdown) cell lines were described previously (Goh et al, [2018]).

A875 NT cells = test: Wound healing cell motility assay, A875 NT; format: cell-based, human; conditions: for Wound area, Mean: N=3; for Wound area (Fold), Mean / Wound area (Fold), individual replicates: 10uM
Description: For wound healing assay, cells were grown until confluency and subjected to a wound across the cell mono-layer. Cells were then incubated with serum-free media either with DMSO or a small molecule (with or without 5 µM Q_VD_poH) and imaged at specific time-points. Cell migration is reflected as fold change in wound area over time.

[1] = 5μM Q_VD_poH + 10μM Div17E5, 0 hours
[2] = 5μM Q_VD_poH + 10μM Div17E5, 3 hours
[3] = 5μM Q_VD_poH + 10μM Div17E5, 6 hours
[4] = 5μM Q_VD_poH + 10μM Div17E5, 9 hours
[5] = 5μM Q_VD_poH + 10μM Div17E5, 12 hours
[6] = 5μM Q_VD_poH + 10μM Div17E5, 15 hours
[7] = 5μM Q_VD_poH + 10μM Div17E5, 18 hours
[8] = 5μM Q_VD_poH + 10μM Div17E5, 21 hours
[9] = 5μM Q_VD_poH + 10μM Div17E5, 24 hours

Oc1ccc(-c2cncc(Nc3ccc(Br)c(Cl)c3)n2)cc1 [Div17E5]
effect of Val254 mutation on compound activity in AraTM assay (p75^NTR TMD V254A): abolished
GFP/OD630, p75NTR V254A, n1-n3 (p75^NTR TMD V254A; Div17E5 7.5 uM): 87% and 97% and 91%
GFP/OD630, p75NTR V254A, Mean (p75^NTR TMD V254A; Div17E5 7.5 uM): 92%
GFP/OD630, p75NTR V254A, n1-n3 (p75^NTR TMD V254A; Div17E5 15 uM): 86% and 95% and 96%
GFP/OD630, p75NTR V254A, Mean (p75^NTR TMD V254A; Div17E5 15 uM): 92%
GFP/OD630, p75NTR V254A, n1-n3 (p75^NTR TMD V254A; Div17E5 20 uM): 89% and 96% and 99%
GFP/OD630, p75NTR V254A, Mean (p75^NTR TMD V254A; Div17E5 20 uM): 95%
GFP/OD630, p75NTR V254A, n1-n3 (p75^NTR TMD V254A; Div17E5 50 uM): 95% and 85% and 98%
GFP/OD630, p75NTR V254A, Mean (p75^NTR TMD V254A; Div17E5 50 uM): 93%
apoptosis (cleavage of PARP) (A875 melanoma cells (NT)): induced apoptosis
Cleaved PARP normalized to DMSO, individual replicates (A875 melanoma cells (NT); 0.5uM): 2.699 and 3.180 and 5.109
Cleaved PARP/actin, individual replicates (A875 melanoma cells (NT); 0.5uM): 0.023 and 0.026 and 0.037
Cleaved PARP normalized to DMSO, Average (A875 melanoma cells (NT); 0.5μM): 3.662
Cleaved PARP normalized to DMSO, individual replicates (A875 melanoma cells (NT); 1uM): 10.573 and 9.243 and 5.315
Cleaved PARP/actin, individual replicates (A875 melanoma cells (NT); 1uM): 0.078 and 0.043 and 0.077
Cleaved PARP normalized to DMSO, Average (A875 melanoma cells (NT); 1μM): 8.377
Cleaved PARP normalized to DMSO, individual replicates (A875 melanoma cells (NT); 2uM): 25.774 and 23.617 and 17.703
Cleaved PARP/actin, individual replicates (A875 melanoma cells (NT); 2uM): 0.187 and 0.200 and 0.142
Cleaved PARP normalized to DMSO, Average (A875 melanoma cells (NT); 2μM): 22.365
Cleaved PARP normalized to DMSO, individual replicates (A875 melanoma cells (NT); 5uM): 31.874 and 36.234 and 27.415
Cleaved PARP/actin, individual replicates (A875 melanoma cells (NT); 5uM): 0.231 and 0.306 and 0.220
Cleaved PARP normalized to DMSO, Average (A875 melanoma cells (NT); 5μM): 31.841
cell motility (wound healing) (A875 NT cells): significantly impaired motility
Wound area, n1-n3 (A875 NT cells; [1]): 1.151 Fold and 0.989 Fold and 0.859 Fold
Wound area, Mean (A875 NT cells; [1]): 1.000 Fold
Wound area, n1-n3 (A875 NT cells; [2]): 0.948 Fold and 1.003 Fold and 1.022 Fold
Wound area, Mean (A875 NT cells; [2]): 0.991 Fold
Wound area, n1-n3 (A875 NT cells; [3]): 0.944 Fold and 0.988 Fold and 1.047 Fold
Wound area, Mean (A875 NT cells; [3]): 0.993 Fold
Wound area, n1-n3 (A875 NT cells; [4]): 0.936 Fold and 0.934 Fold and 1.001 Fold
Wound area, Mean (A875 NT cells; [4]): 0.957 Fold
Wound area, n1-n3 (A875 NT cells; [5]): 0.937 Fold and 0.894 Fold and 1.002 Fold
Wound area, Mean (A875 NT cells; [5]): 0.944 Fold
Wound area, n1-n3 (A875 NT cells; [6]): 0.938 Fold and 0.874 Fold and 0.985 Fold
Wound area, Mean (A875 NT cells; [6]): 0.932 Fold
Wound area, n1-n3 (A875 NT cells; [7]): 0.920 Fold and 0.852 Fold and 0.976 Fold
Wound area, Mean (A875 NT cells; [7]): 0.916 Fold
Wound area, n1-n3 (A875 NT cells; [8]): 0.922 Fold and 0.829 Fold and 0.962 Fold
Wound area, Mean (A875 NT cells; [8]): 0.904 Fold
Wound area, n1-n3 (A875 NT cells; [9]): 0.916 Fold and 0.831 Fold and 0.939 Fold
Wound area, Mean (A875 NT cells; [9]): 0.895 Fold
wound healing assay, comparison of Div17E5, MS_18 and MS_63 (A875 NT cells; 10 µM): the better of the three
Wound area, Mean (A875 NT cells; 10μM Div17E5, 0 hours): 1.000 Fold
Wound area, n1-n3 (A875 NT cells; 10μM Div17E5, 3 hours): 1.026 Fold and 0.986 Fold and 1.104 Fold
Wound area, Mean (A875 NT cells; 10μM Div17E5, 3 hours): 1.039 Fold
Wound area, n1-n3 (A875 NT cells; 10μM Div17E5, 6 hours): 0.988 Fold and 0.956 Fold and 1.073 Fold
Wound area, Mean (A875 NT cells; 10μM Div17E5, 6 hours): 1.006 Fold
Wound area, n1-n3 (A875 NT cells; 10μM Div17E5, 9 hours): 0.922 Fold and 0.923 Fold and 1.017 Fold
Wound area, Mean (A875 NT cells; 10μM Div17E5, 9 hours): 0.954 Fold
Wound area, n1-n3 (A875 NT cells; 10μM Div17E5, 12 hours): 0.909 Fold and 0.918 Fold and 0.979 Fold
Wound area, Mean (A875 NT cells; 10μM Div17E5, 12 hours): 0.935 Fold
Wound area, n1-n3 (A875 NT cells; 10μM Div17E5, 15 hours): 0.913 Fold and 0.881 Fold and 0.951 Fold
Wound area, Mean (A875 NT cells; 10μM Div17E5, 15 hours): 0.915 Fold
Wound area, n1-n3 (A875 NT cells; 10μM Div17E5, 18 hours): 0.881 Fold and 0.866 Fold and 0.915 Fold
Wound area, Mean (A875 NT cells; 10μM Div17E5, 18 hours): 0.887 Fold
Wound area, n1-n3 (A875 NT cells; 10μM Div17E5, 21 hours): 0.886 Fold and 0.863 Fold and 0.915 Fold
Wound area, Mean (A875 NT cells; 10μM Div17E5, 21 hours): 0.888 Fold
Wound area, n1-n3 (A875 NT cells; 10μM Div17E5, 24 hours): 0.865 Fold and 0.854 Fold and 0.889 Fold
Wound area, Mean (A875 NT cells; 10μM Div17E5, 24 hours): 0.870 Fold
Wound area (Fold), Mean (A875 NT cells; 0 hours): 1 Fold
Wound area (Fold), individual replicates (A875 NT cells; 0 hours): 1.000 Fold
Wound area (Fold), Mean (A875 NT cells; 3 hours): 0.931 Fold
Wound area (Fold), individual replicates (A875 NT cells; 3 hours): 0.928 Fold and 0.933 Fold
Wound area (Fold), Mean (A875 NT cells; 6 hours): 0.912 Fold
Wound area (Fold), individual replicates (A875 NT cells; 6 hours): 0.898 Fold and 0.926 Fold
Wound area (Fold), Mean (A875 NT cells; 9 hours): 0.866 Fold
Wound area (Fold), individual replicates (A875 NT cells; 9 hours): 0.856 Fold and 0.878 Fold
Wound area (Fold), Mean (A875 NT cells; 12 hours): 0.895 Fold
Wound area (Fold), individual replicates (A875 NT cells; 12 hours): 0.846 Fold and 0.944 Fold
Wound area (Fold), Mean (A875 NT cells; 15 hours): 0.862 Fold
Wound area (Fold), individual replicates (A875 NT cells; 15 hours): 0.814 Fold and 0.91 Fold
Wound area (Fold), Mean (A875 NT cells; 18 hours): 0.863 Fold
Wound area (Fold), individual replicates (A875 NT cells; 18 hours): 0.826 Fold and 0.899 Fold
Wound area (Fold), Mean (A875 NT cells; 21 hours): 0.869 Fold
Wound area (Fold), individual replicates (A875 NT cells; 21 hours): 0.805 Fold and 0.934 Fold
